The record followed here is patent US20140128472A1, “TREATMENT AND PREVENTION OF DISEASES RELATED TO OXIDATIVE STRESS” (UNIVERSITY OF PÉCS, priority 2011, published 2014).

Each structure is given as a SMILES string. “Also recorded” adds a separate entry of the source.

One assay concerns Akt (PKB). As to the kind of experiment: Erythropoietin-dependent phosphorylation of Akt (PKB) in 3T3-L1 adipocytes (Western blot). The assay is classed as cell-based, mouse. To be noted: 25 mM glucose; various concentrations of erythropoietin.
For a further assay, the system named is Akt (protein kinase B). Put plainly: Insulin-induced phosphorylation of Akt in 3T3-L1 adipocytes (Western blot). It counts as cell-based, mouse. To be noted: cells grown on m-Tyr or o-Tyr; insulin 200 and 400 nmol/l. The method, then:
(§1) Primary cultures of mouse embryo fibroblasts (3T3-L1) were purchased from ATCC (Manassas, US). Early passages of 3T3-L1 fibroblasts were cultured in Dulbecco's modified Eagle medium ((DMEM, Invitrogen, CAT number: 41966-029; Sigma Aldrich CAT number: D6046) supplemented with 10% Fetal Bovine Serum (Gibco, CAT number: 16170-078), 100 U/ml penicillin and 0.1 mg/ml streptomycin (Gibco, CAT number: 15070-063) and 398 nM p-, m-, or o-Tyr. DMEM contained 25 or 5 mM glucose (depending on the experiment), L-glutamine, and pyruvate. Cells were grown in a humidified incubator at 37° C. and 5% CO2. Differentiation medium consisted of DMEM supplemented with 10% Fetal Bovine Serum (FBS, Gibco, Csertex, Budapest, Hungary, CAT number: 10106-169) (FBS), to which a cocktail was added containing […] isobuthylmethylxanthine (Sigma Aldrich, CAT number: I 5879), 0.17 nM insulin (Sigma Aldrich, CAT number: I 9278) and 250 nM dexamethasone (Sigma Aldrich, CAT number: 861871). From Day 4 onward, cells were maintained in DMEM/10% FBS containing […] insulin with a media change every other day until experimental treatments were initiated. For all treatments, cells were incubated overnight in serum-deprived medium after 90% of the cell population reached the adipocyte phenotype.
Following the treatment cells were washed twice with Saline (4° C.) to remove any trace of the medium, then exposed to 80 μL lysis buffer/plate, containing 1.15% Triton X, 1M Trisbase, pH 7.4, 0.5 M EDTA, pH 8, 0.2 M EGTA, pH 7, 0.1 M dithiothreitol (DTT), 5 mg/ml phenylmethylsulfonyl fluoride (PMSF), 0.1 M Na3VO4, 5 mg/ml leupeptin, 5 mg/ml aprotinin, Phoshatase Inhibitor Coctail 1 and 2 (Sigma Aldrich, CAT number: P2850 and P5726). Adypocytes were scraped off mechanically and then frozen at −70° C.
The samples of EC lysates were sonicated (2 min) and centrifuged (10 min, 13,000 rpm, at 4° C.). Protein content of samples was determined by the Bradford method using bovine serum albumin as a standard Bio-Rad Benchmark Plus. Samples were solubilized in a buffer of 100 mM Tris-HCl (pH 6.8), 4.0% sodium dodecyl sulphate (SDS), 20% glycerol, 200 mM DTT, and 0.2% bromophenol blue. […]
Membranes were incubated overnight with the immunoglobulin G (IgG) monoclonal antibodies diluted to 1:1000 in TBS-T (0.1%), containing 5% bovine serum (BS). […] Blots were detected using enhanced chemiluminescence (ECL; Pierce Biotech, Bio-Rad, Budapest, Hungary). Computerized densitometry (integrated optical density) of the specific bands was analyzed with Scion Image for Windows Software. […]

The next assay deals with 3T3-L1 adipocytes. As to the kind of experiment: Insulin-dependent uptake of deoxy-D-glucose 2-[1 2-3H(N)] into 3T3-L1 adipocytes. It counts as cell-based, mouse. How it is done: as §1
Cells were incubated in glucose free DMEM (Gibco, Csertex, Hungary) for 30 minutes, then treated with 2, 20, 200 or 400 nmol/l insulin for 100 minutes. Simultaneously 1 μCi/ml deoxy-D-glucose 2-[1 2-3H(N)] (3.7×104 Bq/ml) (Izotóp Intézet, Hungary) was added to the plates for 100 minutes Cells were scraped into the medium and centrifuged for 5 minutes at 1000 rpm. The sediment was dissolved in 70 μl of lysis-buffer and glucose uptake was assessed by scintillation counting measuring 30 μl of the sample with a Beckman LS 5000 TD counter in counts per minute (CPM) for five minutes each, using an average activity as the outcome. Samples were frozen overnight at −70° C. and protein concentration was measured using a Hitachi spectrophotometer. Results were normalized for protein content (Kaddai2009).

Assay [1] deals with thoracic and abdominal aorta, renal and femoral arteries. Put plainly: Insulin-induced relaxation of isolated arterial segments after oral tyrosine isomer supplementation of rats. The assay is classed as in vivo, Sprague-Dawley rats. The method, then: The experiments were carried out with the permission of the Hungarian Local Animal Experiment Committee. Shortly after weaning male CFY rats (a strain of the Sprague-Dawley rat) were placed in individual cages and held on regular diet. After two hours of fasting animals (4-5 week-old, 80-140 g) were loaded with 1.76 mg/die para-, meta- or ortho-tyrosine (p-, m-, o-tyr; Sigma-Aldrich, Inc., St. Louis, Mo. 63178, USA) dissolved in saline or vehicle (saline only) by gavage (per os) six days of the week. After one month treatment, animals were either anaesthetized with ether and were decapitated with a guillotine or p-, m-, o-tyr and vehicle supplementation was discontinued (“washout” period) and they were sacrificed […] (FIG. 8.A). The descending thoracic and abdominal aorta, renal and femoral arteries were removed and cleaned from connective tissue (FIG. 19). Sections were immediately hydrolyzed for HPLC analysis or were used for vascular reactivity studies.
In further tyrosine isomer incorporation studies when effects of chronic oral p-Tyr and o-Tyr supplementation of rats on the o-Tyr level and insulin-induced relaxation of isolated arterial segments were studied, 18 Male Sprague-Dawley rats (5-6 week-old) were used. Rats were orally supplied with either 1.76 mg/die of p-Tyr or o-Tyr or vehicle during six days per week for four weeks. […] At the end of four-week treatment, HPLC and vasomotor studies were performed. In another group of rats, p-Tyr/o-Tyr supplementation was discontinued for four weeks (“washout” period), after which they were sacrificed for HPLC and vasomotor studies.
The modified method of Fésüs et al. (Fésüs2007) was used. The distal parts of the vessels were dissected into 2 mm long segments in ice-cold Krebs buffer and rings were mounted on two stainless steel wires (40 μm in diameter) in a Danish Multimyograph Model 610M (DMT-USA Inc., Atlanta, Ga., USA). Vessels were bathed in Krebs buffer (containing 119 mM NaCl, 4.7 mM KCl, 1.2 mM KH2PO4, 25 mM NaHCO3, 1.2 mM Mg2SO4, 11.1 mM glucose, 1.6 mM CaCl2*2H2O, pH 7.4) and gassed with 5% CO2 and 95% O2 at 37° C. The resting tension/internal circumference relationship for each vessel was determined and then the internal circumference was set to 0.9×L100, where L100 is the internal circumference the vessel would have had in vivo when relaxed under a transmural pressure of 100 mmHg After this normalization procedure vessels were allowed to stabilize for 30 min, and then isometric tension was continuously recorded. Rings were preconstricted with 100 nM epinephrine. After reaching a stabile contraction plateau, relaxant responses to increasing doses of insulin were assessed. The rate of relaxation was expressed as percentage of the contraction evoked by epinephrine (100%). Para-, meta-, ortho-tyrosine or vehicle were added to the vessel chamber 10 minutes before the addition of epinephrine and 30 minutes before the addition of insulin.

For the compound `N[C@@H](Cc1cccc(O)c1)C(=O)O` [m-Tyr, Meta-L-tyrosine], the “EPO-dependent Akt phosphorylation” value with Akt (PKB) is “inhibited the normal increase in the Akt phosphorylation”. The “Insulin-induced Akt phosphorylation” value in the assay on Akt (protein kinase B) was “inhibited the insulin-induced Akt-phosphorylation; also recorded: could not be significantly enhanced by insulin”. In addition, the “Insulin-induced glucose uptake at equimolar concentrations with p-Tyr” value with 3T3-L1 adipocytes (72-72 mg/l m-Tyr or o-Tyr and p-Tyr, insulin 400 nM) was “fully inhibit insulin-induced glucose uptake; also recorded: insulin had no effect on glucose uptake at all”. Besides, the “Insulin-dependent deoxy-D-glucose uptake” value in the assay with 3T3-L1 adipocytes (cells grown 11 days on medium with the tyrosine isomer + 5 mM glucose, insulin 2, 20, 200, 400 nM) was “no insulin effect could be verified”. In the assay with 3T3-L1 adipocytes (cells grown on m-Tyr- or o-Tyr-containing medium (72 mg/l) for different time periods, no insulin), the Baseline glucose uptake result is listed as “did not show a marked change”. Also, the “Insulin-induced glucose uptake, time dependence” value in the assay with 3T3-L1 adipocytes (m-Tyr or o-Tyr 72 mg/l for different time periods, insulin 400 nM, time-dependent manner) is listed as “blocked”. The “Ability to inhibit insulin-induced glucose uptake, dependence on concentration” value with 3T3-L1 adipocytes (m-Tyr or o-Tyr 2.25-72 mg/l with p-Tyr 72 mg/l, insulin 400 nM) is on record as “concentration-dependent”. Also, the “Insulin-induced relaxation, abdominal aorta, femoral (and renal) arteries” value in assay [1] (4th week, 1.76 mg/die per os, compared to control) was “significantly diminished response to insulin”. In addition, the “Insulin-induced relaxation, thoracic aorta” value in assay [1] (4th week, 1.76 mg/die per os, compared to control/other groups) is given as “did not observe any significant further decline of response to insulin”. Also, the “Chronic effects on insulin-induced vasorelaxation after washout” value in assay [1] (8th week, 4 weeks washout, all segments) is given as “completely abolished”.
